Laboratory results from ChEMBL document CHEMBL4725268, “Anticonvulsant and analgesic in neuropathic pain activity in a group of new aminoalkanol derivatives” (Bioorg Med Chem Lett, 2020).
pKi: −log10 of the molar value. Active and inactive are the calls of the source.

Assays:
[1] = Antioxidant activity assessed as DPPH radical scavenging activity at 125 to 1000 uM by microplate method; format: functional; conditions: dose microM 125-1000
Mus musculus [2] = assay: Anticonvulsant activity in ip dosed mouse assessed as protection against current-induced seizure by maximal electroshock seizure test; format: functional
[3] = Toxicity in mouse assessed as lethality at 50 mg/kg, ip; format: organism-based; conditions: in vivo
[4] = Toxicity in ip dosed mouse assessed as motor impairment by rotarod test; format: organism-based; conditions: in vivo
[5] = Protection index, ratio of TD50 for toxicity in ip dosed mouse to ED50 for anticonvulsant activity in ip dosed mouse; format: organism-based; conditions: in vivo, read-out: PI
Mus musculus [6] = assay: Antiallodynic activity in mouse model of OXA-induced peripheral neuropathy assessed as mean latency time to nocifensive response at 15 mg/kg, ip administered after 3 hrs of OXA stimulation and measured after 1 hr by cold plate method (reference value: 59.76 +/- 0.16 sec); format: functional
Mus musculus [7] = assay: Antiallodynic activity in mouse model of OXA-induced peripheral neuropathy assessed as mean paw withdrawal threshold at 15 mg/kg, ip administered after 3 hrs of OXA stimulation and measured after 1 hr by Von-frey method (reference value: 3.144 +/- 0.169 g); format: functional
Mus musculus [8] = assay: Antiallodynic activity in mouse model of OXA-induced peripheral neuropathy assessed as mean latency time to nocifensive response at 15 mg/kg, ip administered after 7 days of OXA stimulation and measured after 1 hr by cold plate method (reference value: 57.64 +/- 1.267 sec); format: functional
Mus musculus [9] = assay: Antiallodynic activity in mouse model of OXA-induced peripheral neuropathy assessed as mean paw withdrawal threshold at 15 mg/kg, ip administered after 7 days of OXA stimulation and measured after 1 hr by Von-frey method (reference value: 3.192 +/- 0.181 g); format: functional
[10] = molecular target: T1, 5-hydroxytryptamine receptor 1A (Homo sapiens, UniProt P08908); assay: Binding affinity to 5-HT1A (unknown origin)
T1 sequence (P08908 whole entry): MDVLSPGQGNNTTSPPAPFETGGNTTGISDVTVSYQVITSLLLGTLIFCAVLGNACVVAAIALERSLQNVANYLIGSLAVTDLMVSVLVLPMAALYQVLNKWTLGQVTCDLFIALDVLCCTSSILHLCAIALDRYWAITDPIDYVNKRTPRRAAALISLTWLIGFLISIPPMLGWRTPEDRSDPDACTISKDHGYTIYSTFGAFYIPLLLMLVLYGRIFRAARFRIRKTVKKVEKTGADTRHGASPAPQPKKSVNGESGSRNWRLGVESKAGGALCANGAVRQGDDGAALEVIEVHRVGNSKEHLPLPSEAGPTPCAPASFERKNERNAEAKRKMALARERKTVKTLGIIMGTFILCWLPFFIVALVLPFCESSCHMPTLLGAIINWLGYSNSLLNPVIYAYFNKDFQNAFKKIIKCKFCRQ

[11] = Drug metabolism in mouse microsome assessed as formation of monohydroxylated metabolite; format: ADME; conditions: microsomes
[12] = Genotoxicity in Salmonella typhimurium TA100 assessed as number of revertant at 10 ug by AMES test (reference value: 64.3 to 130.7); format: toxicity, Salmonella enterica subsp. enterica serovar Typhimurium; conditions: in vivo; dose 10 µg
[13] = Genotoxicity in Salmonella typhimurium TA100 assessed as number of revertant at 75 ug by AMES test (reference value: 64.3 to 130.7); format: toxicity, Salmonella enterica subsp. enterica serovar Typhimurium; conditions: in vivo; dose 75 µg
[14] = Genotoxicity in Salmonella typhimurium TA100 assessed as number of revertant at 200 ug by AMES test (reference value: 64.3 to 130.7); format: toxicity, Salmonella enterica subsp. enterica serovar Typhimurium; conditions: in vivo; dose 200 µg
[15] = Genotoxicity in Salmonella typhimurium TA100 assessed as number of revertant at 0.1 ug by AMES test (reference value: 64.3 to 130.7); format: toxicity, Salmonella enterica subsp. enterica serovar Typhimurium; conditions: in vivo; dose 0.1 µg
[16] = Genotoxicity in Salmonella typhimurium TA100 assessed as number of revertant at 1 ug by AMES test (reference value: 64.3 to 130.7); format: toxicity, Salmonella enterica subsp. enterica serovar Typhimurium; conditions: in vivo; dose 1 µg
[17] = Genotoxicity in Salmonella typhimurium TA100 assessed as mutagenic index at 10 ug by AMES test; format: toxicity, Salmonella enterica subsp. enterica serovar Typhimurium; conditions: in vivo; dose 10 µg
[18] = Genotoxicity in Salmonella typhimurium TA100 assessed as mutagenic index at 75 ug by AMES test; format: toxicity, Salmonella enterica subsp. enterica serovar Typhimurium; conditions: in vivo; dose 75 µg
[19] = Genotoxicity in Salmonella typhimurium TA100 assessed as mutagenic index at 200 ug by AMES test; format: toxicity, Salmonella enterica subsp. enterica serovar Typhimurium; conditions: in vivo; dose 200 µg
[20] = Genotoxicity in Salmonella typhimurium TA100 assessed as mutagenic index at 0.1 ug by AMES test; format: toxicity, Salmonella enterica subsp. enterica serovar Typhimurium; conditions: in vivo; dose 0.1 µg
[21] = Genotoxicity in Salmonella typhimurium TA100 assessed as mutagenic index at 1 ug by AMES test; format: toxicity, Salmonella enterica subsp. enterica serovar Typhimurium; conditions: in vivo; dose 1 µg
[22] = Genotoxicity in Salmonella typhimurium TA98 assessed as number of revertant at 10 ug by AMES test (reference value: 8 to 8.3); format: toxicity, Salmonella enterica subsp. enterica serovar Typhimurium; conditions: in vivo; dose 10 µg
[23] = Genotoxicity in Salmonella typhimurium TA98 assessed as number of revertant at 75 ug by AMES test (reference value: 8 to 8.3); format: toxicity, Salmonella enterica subsp. enterica serovar Typhimurium; conditions: in vivo; dose 75 µg
[24] = Genotoxicity in Salmonella typhimurium TA98 assessed as number of revertant at 200 ug by AMES test (reference value: 8 to 8.3); format: toxicity, Salmonella enterica subsp. enterica serovar Typhimurium; conditions: in vivo; dose 200 µg
[25] = Genotoxicity in Salmonella typhimurium TA98 assessed as number of revertant at 500 ug by AMES test (reference value: 8 to 8.3); format: toxicity, Salmonella enterica subsp. enterica serovar Typhimurium; conditions: in vivo; dose 500 µg
[26] = Genotoxicity in Salmonella typhimurium TA98 assessed as number of revertant at 750 ug by AMES test (reference value: 8 to 8.3); format: toxicity, Salmonella enterica subsp. enterica serovar Typhimurium; conditions: in vivo; dose 750 µg
[27] = Genotoxicity in Salmonella typhimurium TA98 assessed as mutagenic index at 10 ug by AMES test; format: toxicity, Salmonella enterica subsp. enterica serovar Typhimurium; conditions: in vivo; dose 10 µg
[28] = Genotoxicity in Salmonella typhimurium TA98 assessed as mutagenic index at 75 ug by AMES test; format: toxicity, Salmonella enterica subsp. enterica serovar Typhimurium; conditions: in vivo; dose 75 µg
[29] = Genotoxicity in Salmonella typhimurium TA98 assessed as mutagenic index at 200 ug by AMES test; format: toxicity, Salmonella enterica subsp. enterica serovar Typhimurium; conditions: in vivo; dose 200 µg
[30] = Genotoxicity in Salmonella typhimurium TA98 assessed as mutagenic index at 500 ug by AMES test; format: toxicity, Salmonella enterica subsp. enterica serovar Typhimurium; conditions: in vivo; dose 500 µg
[31] = Genotoxicity in Salmonella typhimurium TA98 assessed as mutagenic index at 750 ug by AMES test; format: toxicity, Salmonella enterica subsp. enterica serovar Typhimurium; conditions: in vivo; dose 750 µg
Astrocyte [32] = assay: Cytotoxicity against human Astrocyte assessed as reduction in cell viability at 50 uM incubated for 24 hrs by MTT assay; format: cell-based
Astrocyte [33] = assay: Cytotoxicity against mouse Astrocyte assessed as reduction in cell viability at 100 uM incubated for 24 hrs by LDH assay; format: cell-based
Astrocyte [34] = assay: Cytotoxicity against mouse Astrocyte assessed as reduction in cell viability at 100 uM incubated for 48 hrs by trypan blue assay; format: cell-based
Astrocyte [35] = assay: Cytotoxicity against mouse Astrocyte assessed as reduction in cell viability at > 25 uM measured upto 48 hrs by crystal violet staining colorimetric assay; format: cell-based
in vitro [36] = conditions: mouse, microsomes
Description: Metabolic stability in mouse microsome assessed as half life

in vitro [37] = conditions: mouse, microsomes; remark: listed apart in the source
Description: Metabolic stability in mouse microsome assessed as intrinsic clearance

## Cc1cc(C)c(C)c(OCCN[C@@H]2CCCC[C@H]2O)c1 (racemic)
[1]
  Activity: inactive
Mus musculus [2]
  ED50: 15.7 mg/kg
[3]
  Activity: Non-Toxic
[4]
  TD50: 78.3 mg/kg
[5]
  selectivity ratio: 5
Mus musculus [6]
  Time: 22.333 s
Mus musculus [7]
  Activity: 2.222 g
Mus musculus [8]
  Time: 9.278 s
Mus musculus [9]
  Activity: 2.122 g
[10]
  pKi: 6.00
[11]
  Drug metabolism: Metabolite_Detected
[12]
  Activity: 185.5
[13]
  Activity: 105
[14]
  Activity: 49
[15]
  Activity: 147
[16]
  Activity: 138.3
[17]
  Activity_index: 2.6
[18]
  Activity_index: 1.4
[19]
  Activity_index: 0.7
[20]
  Activity_index: 1.1
[21]
  Activity_index: 1.1
[22]
  Activity: 7.3
[23]
  Activity: 6.3
[24]
  Activity: 6.7
[25]
  Activity: 8.7
[26]
  Activity: 9.3
[27]
  Activity_index: 0.9
[28]
  Activity_index: 0.8
[29]
  Activity_index: 0.8
[30]
  Activity_index: 1.1
[31]
  Activity_index: 1.2
Astrocyte [32]
  Activity: Toxic
Astrocyte [33]
  Activity: Toxic
Astrocyte [34]
  Activity: Toxic
Astrocyte [35]
  Activity: Toxic
In vitro [36]
  half-life: 27.2 min
In vitro [37]
  microsomal CLint: 128 µL/min/mg
